Measured values published in the NIST ThermoML archive (doi:10.1016/j.tca.2012.08.011).

Assay: xn = mol fraction of the nth substance listed
Conditions: 101 kPa, Liquid; for speed of sound: Linear variable-path acoustic interferometer; for mass density: Vibrating tube method

NC1CCCCC1 [cyclohexylamine] + C1CCCCC1
Conditions	mass density [kg/m3]	speed of sound [m/s]
293.15 K, x1 = 0.0545	782.87	1282.7
293.15 K, x1 = 0.1032	786.84	1287.2
293.15 K, x1 = 0.1514	790.9	1291.9
293.15 K, x1 = 0.204	795.42	1298
293.15 K, x1 = 0.2496	799.41	1303.5
293.15 K, x1 = 0.3052	804.34	1310.7
293.15 K, x1 = 0.3467	808.08	1316.6
293.15 K, x1 = 0.3967	812.57	1323.8
293.15 K, x1 = 0.4025	813.08	1324.5
293.15 K, x1 = 0.4478	817.22	1331.2
293.15 K, x1 = 0.4992	821.91	1339.2
293.15 K, x1 = 0.5538	826.9	1348.3
293.15 K, x1 = 0.6495	835.66	1364.5
293.15 K, x1 = 0.6996	840.25	1373.5
293.15 K, x1 = 0.7535	845.15	1383.2
293.15 K, x1 = 0.8071	850.03	1393
293.15 K, x1 = 0.8555	854.41	1402.2
293.15 K, x1 = 0.8959	858.06	1410.1
293.15 K, x1 = 0.9501	862.93	1420.6
293.15 K, x1 = 1	867.39	1430.5
298.15 K, x1 = 0.0545	778.17	1257.9
298.15 K, x1 = 0.1032	782.14	1262.6
298.15 K, x1 = 0.1514	786.2	1267.6
298.15 K, x1 = 0.204	790.73	1273.8
298.15 K, x1 = 0.2496	794.7	1279.4
298.15 K, x1 = 0.3052	799.64	1286.8
298.15 K, x1 = 0.3467	803.36	1293
298.15 K, x1 = 0.3967	807.88	1300.2
298.15 K, x1 = 0.4025	808.4	1300.9
298.15 K, x1 = 0.4478	812.54	1307.8
298.15 K, x1 = 0.4992	817.25	1315.9
298.15 K, x1 = 0.5538	822.24	1325
298.15 K, x1 = 0.6495	831.02	1341.3
298.15 K, x1 = 0.6996	835.61	1350.4
298.15 K, x1 = 0.7535	840.54	1360.5
298.15 K, x1 = 0.8071	845.43	1370.4
298.15 K, x1 = 0.8555	849.81	1379.6
298.15 K, x1 = 0.8959	853.48	1387.7
298.15 K, x1 = 0.9501	858.37	1398.5
298.15 K, x1 = 1	862.85	1408.8
303.15 K, x1 = 0.0545	773.44	1233.6
303.15 K, x1 = 0.1032	777.42	1238.1
303.15 K, x1 = 0.1514	781.48	1243.5
303.15 K, x1 = 0.204	786.03	1249.7
303.15 K, x1 = 0.2496	790.01	1255.4
303.15 K, x1 = 0.3052	794.94	1263.2
303.15 K, x1 = 0.3467	798.67	1269
303.15 K, x1 = 0.3967	803.19	1276.7
303.15 K, x1 = 0.4025	803.71	1277.4
303.15 K, x1 = 0.4478	807.85	1284.4
303.15 K, x1 = 0.4992	812.59	1292.7
303.15 K, x1 = 0.5538	817.57	1301.8
303.15 K, x1 = 0.6495	826.37	1318.5
303.15 K, x1 = 0.6996	830.97	1327.6
303.15 K, x1 = 0.7535	835.93	1337.7
303.15 K, x1 = 0.8071	840.82	1347.9
303.15 K, x1 = 0.8555	845.22	1357.2
303.15 K, x1 = 0.8959	848.9	1365.3
303.15 K, x1 = 0.9501	853.81	1376.5
303.15 K, x1 = 1	858.31	1387.3
308.15 K, x1 = 0.0545	768.69	1209.3
308.15 K, x1 = 0.1032	772.67	1213.9
308.15 K, x1 = 0.1514	776.74	1219.6
308.15 K, x1 = 0.204	781.3	1225.8
308.15 K, x1 = 0.2496	785.28	1231.6
308.15 K, x1 = 0.3052	790.22	1239.7
308.15 K, x1 = 0.3467	793.96	1245.6
308.15 K, x1 = 0.3967	798.48	1253.5
308.15 K, x1 = 0.4025	799.01	1254.4
308.15 K, x1 = 0.4478	803.16	1261.5
308.15 K, x1 = 0.4992	807.91	1269.9
308.15 K, x1 = 0.5538	812.89	1279
308.15 K, x1 = 0.6495	821.73	1295.7
308.15 K, x1 = 0.6996	826.34	1305
308.15 K, x1 = 0.7535	831.31	1315.5
308.15 K, x1 = 0.8071	836.22	1325.6
308.15 K, x1 = 0.8555	840.63	1334.9
308.15 K, x1 = 0.8959	844.32	1343.1
308.15 K, x1 = 0.9501	849.24	1354.7
308.15 K, x1 = 1	853.76	1366
313.15 K, x1 = 0.0545	763.91	1185.5
313.15 K, x1 = 0.1032	767.89	1189.8
313.15 K, x1 = 0.1514	771.98	1195.5
313.15 K, x1 = 0.204	776.54	1202
313.15 K, x1 = 0.2496	780.53	1207.9
313.15 K, x1 = 0.3052	785.49	1216.3
313.15 K, x1 = 0.3467	789.24	1222.2
313.15 K, x1 = 0.3967	793.77	1230.3
313.15 K, x1 = 0.4025	794.29	1231
313.15 K, x1 = 0.4478	798.45	1238.5
313.15 K, x1 = 0.4992	803.21	1247
313.15 K, x1 = 0.5538	808.21	1256.3
313.15 K, x1 = 0.6495	817.07	1273.3
313.15 K, x1 = 0.6996	821.7	1282.6
313.15 K, x1 = 0.7535	826.67	1292.9
313.15 K, x1 = 0.8071	831.61	1303.4
313.15 K, x1 = 0.8555	836.02	1312.8
313.15 K, x1 = 0.8959	839.74	1321.1
313.15 K, x1 = 0.9501	844.68	1332.8
313.15 K, x1 = 1	849.23	1344.5
318.15 K, x1 = 0.0545	759.09	1162.1
318.15 K, x1 = 0.1032	763.09	1166.2
318.15 K, x1 = 0.1514	767.19	1171.9
318.15 K, x1 = 0.204	771.77	1178.7
318.15 K, x1 = 0.2496	775.77	1184.7
318.15 K, x1 = 0.3052	780.74	1193.1
318.15 K, x1 = 0.3467	784.5	1199.2
318.15 K, x1 = 0.3967	789.02	1207.3
318.15 K, x1 = 0.4025	789.56	1208.2
318.15 K, x1 = 0.4478	793.71	1215.8
318.15 K, x1 = 0.4992	798.49	1224.5
318.15 K, x1 = 0.5538	803.51	1233.9
318.15 K, x1 = 0.6495	812.4	1251.1
318.15 K, x1 = 0.6996	817.05	1260.4
318.15 K, x1 = 0.7535	822.04	1270.9
318.15 K, x1 = 0.8071	827	1281.5
318.15 K, x1 = 0.8555	831.42	1290.9
318.15 K, x1 = 0.8959	835.15	1299.2
318.15 K, x1 = 0.9501	840.12	1311.1
318.15 K, x1 = 1	844.68	1323.1
323.15 K, x1 = 0.0545	754.26	1138.5
323.15 K, x1 = 0.1032	758.27	1142.7
323.15 K, x1 = 0.1514	762.37	1148.4
323.15 K, x1 = 0.204	766.97	1155.2
323.15 K, x1 = 0.2496	770.99	1161.4
323.15 K, x1 = 0.3052	775.97	1169.9
323.15 K, x1 = 0.3467	779.75	1176.2
323.15 K, x1 = 0.3967	784.29	1184.5
323.15 K, x1 = 0.4025	784.82	1185.4
323.15 K, x1 = 0.4478	788.97	1193.2
323.15 K, x1 = 0.4992	793.75	1202
323.15 K, x1 = 0.5538	798.79	1211.6
323.15 K, x1 = 0.6495	807.72	1228.8
323.15 K, x1 = 0.6996	812.4	1238.3
323.15 K, x1 = 0.7535	817.4	1248.9
323.15 K, x1 = 0.8071	822.37	1259.4
323.15 K, x1 = 0.8555	826.82	1269.2
323.15 K, x1 = 0.8959	830.56	1277.6
323.15 K, x1 = 0.9501	835.56	1289.6
323.15 K, x1 = 1	840.14	1301.8
